Results reported in patent US7728028B2, “Substituted imidazoline compounds” (Gruenenthal GmbH, priority 2005, dated 2010).

Target: T1, human μ-opiate receptor (Homo sapiens, UniProt P35372)
T1 construct: purchased PerkinElmer Life Sciences, Zaventem, Belgium RB-HOM; host or cells: CHO-K1 cells (recombinant expression; membrane preparation)
Test: Affinity for the human μ-opiate receptor ([3H]-naloxone displacement, SPA)
Conditions: Table 2, Examples 11-161; test substance 1 μmole/l; inhibition of specific [3H]-naloxone binding; CHO-K1 membranes; read-out: μ-Opioid receptor, % inhibition [1 μM]
Protocol: Investigations on the Efficacy of the Compounds According to the Invention Method for Determining the Affinity for the Human μ-Opiate Receptor
The receptor affinity for the human μ-opiate receptor is determined in a homogeneous batch in microtiter plates. For this purpose dilution series of the substances to be tested are incubated with a receptor membrane preparation (15-40 μg protein/250 μl incubation batch) of CHO-K1 cells, which express the human μ-opiate receptor (RB-HOM receptor membrane preparation from PerkinElmer Life Sciences, Zaventem, Belgium), in the presence of 1 nmole/l of the radioactive ligand [^3H]-naloxone (NET719, PerkinElmer Life Sciences company, Zaventem, Belgium) and 1 mg WGA-SPA beads (wheat germ agglutinin SPA beads from Amersham/Pharmacia, Freiburg, Germany) in a total volume of 250 μl for 90 minutes at room temperature. 50 mmole/l of Tris-HCl supplemented with 0.06% bovine serum albumin is used as incubation buffer. In order to determine the non-specific binding, 100 μmole/l of naloxone is additionally added. After the end of the 90 minutes' incubation time the microtiter plates are centrifuged for 20 minutes at 1000 g and the radioactivity is measured in a beta counter (Microbeta-Trilux, PerkinElmer Wallac, Freiburg, Germany). The percentage displacement of the radioactive ligand from its binding to the human μ-opiate receptor at a concentration of the test substances of 1 μmole/l is determined and is given as percentage inhibition of the specific binding.

T1 sequence (P35372 whole entry): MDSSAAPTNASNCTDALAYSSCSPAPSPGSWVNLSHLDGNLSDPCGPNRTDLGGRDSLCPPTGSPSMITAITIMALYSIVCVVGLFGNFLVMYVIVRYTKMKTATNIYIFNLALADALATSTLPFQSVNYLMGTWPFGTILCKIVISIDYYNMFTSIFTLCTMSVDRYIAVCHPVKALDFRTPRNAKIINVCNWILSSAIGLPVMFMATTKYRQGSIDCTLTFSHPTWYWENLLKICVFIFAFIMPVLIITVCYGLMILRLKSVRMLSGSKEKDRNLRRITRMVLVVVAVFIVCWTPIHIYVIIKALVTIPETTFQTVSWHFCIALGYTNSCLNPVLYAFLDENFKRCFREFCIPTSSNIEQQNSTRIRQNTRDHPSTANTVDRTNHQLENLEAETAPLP

| Compound | inhibition at 1 µM [%] |
| --- | --- |
| CCCC1(C(=O)OC)N=CN(C2CCCCC2)C1CC1CCC(C(c2cccc(F)c2)N(C)C)CC1 (stereo not shown) [Example 102, 1-cyclohexyl-5-{4-[dimethylamino-(3-fluorophenyl)-methyl]-cyclohexylmethyl}-4-propyl-4,5-dihydro-1H-imidazole-4-carboxylic acid methyl ester] | 91 |
| COC(=O)C1(Cc2ccc(Cl)cc2)N=CN(CCc2ccccc2)C1CC1CCC(C(c2ccc(Cl)cc2)N(C)C)CC1 (stereo not shown) [Example 44, 4-(4-chlorobenzyl)-5-{4-[(4-chlorophenyl)-dimethylaminomethyl]-cyclohexylmethyl}-1-phenethyl-4,5-dihydro-1H-imidazole-4-carboxylic acid methyl ester] | 91 |
| COC(=O)C1(CC(C)C)N=CN(Cc2ccccc2)C1C1CCC(C(c2cccc(F)c2)N(C)C)CC1 (stereo not shown) [Example 46, 1-benzyl-5-{4-[dimethylamino-(3-fluorophenyl)-methyl]-cyclohexyl}-4-isobutyl-4,5-dihydro-1H-imidazole-4-carboxylic acid methyl ester] | 92 |
| COC(=O)C1(CC(C)C)N=CN(Cc2ccccc2)C1CC1CCC(C(c2ccc(Cl)cc2)N(C)C)CC1 (stereo not shown) [Example 50, 1-benzyl-5-{4-[(4-chlorophenyl)-dimethylaminomethyl]-cyclohexylmethyl}-4-isobutyl-4,5-dihydro-1H-imidazole-4-carboxylic acid methyl ester] | 94 |
| CCCCN1C=NC(CCSC)(C(=O)OC)C1CC1CCC(C(c2ccc(F)cc2)N(C)C)CC1 (stereo not shown) [Example 126, 1-butyl-5-{4-[dimethylamino-(4-fluorophenyl)-methyl]-cyclohexylmethyl}-4-(2-methylsulfanyl-ethyl)-4,5-dihydro-1H-imidazole-4-carboxylic acid methyl ester] | 98 |
| CCCN1C=NC(Cc2ccc(Cl)cc2)(C(=O)OC)C1C1CCC(C(c2ccc(Cl)cc2)N(C)C)CC1 (stereo not shown) [Example 25, 4-(4-chlorobenzyl)-5-{4-[(4-chlorophenyl)-dimethylaminomethyl]-cyclohexyl}-1-propyl-4,5-dihydro-1H-imidazole-4-carboxylic acid methyl ester] | 83 |
| COC(=O)CCC1(C(=O)OC)N=CN(CCc2ccccc2)C1CC1CCC(C(CCc2ccccc2)N(C)C)CC1 (stereo not shown) [Example 84, 5-[4-(1-dimethylamino-3-phenylpropyl)-cyclohexylmethyl]-4-(2-methoxycarbonylethyl)-1-phenethyl-4,5-dihydro-1H-imidazole-4-carboxylic acid methyl ester] | 75 |
| COC(=O)CCC1(C(=O)OC)N=CN(C2CCCCC2)C1C1CCC(C(c2cccc(F)c2)N(C)C)CC1 (stereo not shown) [Example 115, 1-cyclohexyl-5-{4-[dimethylamino-(3-fluorophenyl)-methyl]-cyclohexyl}-4-(2-methoxycarbonylethyl)-4,5-dihydro-1H-imidazole-4-carboxylic acid methyl ester] | 98 |
| COC(=O)C1(CSC)N=CN(C2CCCCC2)C1CC1CCC(C(CCc2ccccc2)N(C)C)CC1 (stereo not shown) [Example 155, 1-cyclohexyl-5-[4-(1-dimethylamino-3-phenylpropyl)-cyclohexylmethyl]-4-methylsulfanylmethyl-4,5-dihydro-1H-imidazole-4-carboxylic acid methyl ester] | 86 |
| CCCC1(C(=O)OC)N=CN(C2CCCCC2)C1CC1CCC(C(CCc2ccccc2)N(C)C)CC1 (stereo not shown) [Example 108, 1-cyclohexyl-5-[4-(1-dimethylamino-3-phenylpropyl)-cyclohexylmethyl]-4-propyl-4,5-dihydro-1H-imidazole-4-carboxylic acid methyl ester] | 86 |
| CCCCN1C=NC(C(=O)OC)(C(C)CC)C1CC1CCC(C(c2cccc(F)c2)N(C)C)CC1 (stereo not shown) [Example 73, 1-butyl-4-sec-butyl-5-{4-[dimethylamino-(3-fluorophenyl)-methyl]-cyclohexylmethyl}-4,5-dihydro-1H-imidazole-4-carboxylic acid methyl ester] | 92 |
| COC(=O)C1(Cc2ccc(Cl)cc2)N=CN(Cc2ccccc2)C1C1CCC(C(c2cccc(F)c2)N(C)C)CC1 (stereo not shown) [Example 47, 1-benzyl-4-(4-chlorobenzyl)-5-{4-[dimethylamino-(3-fluorophenyl)-methyl]-cyclohexyl}-4,5-dihydro-1H-imidazole-4-carboxylic acid methyl ester] | 74 |
| CCC(C)C1(C(=O)OC)N=CN(C2CCCCC2)C1CC1CCC(C(c2ccc(F)cc2)N(C)C)CC1 (stereo not shown) [Example 152, 4-sec-butyl-1-cyclohexyl-5-{4-[dimethylamino-(4-fluorophenyl)-methyl]-cyclohexylmethyl}-4,5-dihydro-1H-imidazole-4-carboxylic acid methyl ester] | 93 |
| COC(=O)C1(Cc2ccc(Cl)cc2)N=CN(CCc2ccccc2)C1C1CCC(C(c2ccc(Cl)cc2)N(C)C)CC1 (stereo not shown) [Example 41, 4-(4-chlorobenzyl)-5-{4-[(4-chlorophenyl)-dimethylaminomethyl]-cyclohexyl}-1-phenethyl-4,5-dihydro-1H-imidazole-4-carboxylic acid methyl ester] | 79 |
| COC(=O)C1(CSCc2ccccc2)N=CN(Cc2ccccc2)C1C1CCC(C(c2cccc(F)c2)N(C)C)CC1 (stereo not shown) [Example 97, 1-benzyl-4-benzylsulfanylmethyl-5-{4-[dimethylamino-(3-fluorophenyl)-methyl]-cyclohexyl}-4,5-dihydro-1H-imidazole-4-carboxylic acid methyl ester] | 97 |
| CCCN1C=NC(C(=O)OC)(C(C)CC)C1CC1CCC(C(c2ccc(Cl)cc2)N(C)C)CC1 (stereo not shown) [Example 62, 4-sec-butyl-5-{4-[(4-chlorophenyl)-dimethylaminomethyl]-cyclohexylmethyl}-1-propyl-4,5-dihydro-1H-imidazole-4-carboxylic acid methyl ester] | 98 |
| COC(=O)C1(CSC)N=CN(Cc2ccccc2)C1CC1CCC(C(c2ccc(Cl)cc2)N(C)C)CC1 (stereo not shown) [Example 100, 1-benzyl-5-{4-[(4-chlorophenyl)-dimethylaminomethyl]-cyclohexylmethyl}-4-methylsulfanylmethyl-4,5-dihydro-1H-imidazole-4-carboxylic acid methyl ester] | 97 |
| CCCN1C=NC(CCC(=O)OC)(C(=O)OC)C1CC1CCC(C(CCc2ccccc2)N(C)C)CC1 (stereo not shown) [Example 71, 5-[4-(1-dimethylamino-3-phenylpropyl)-cyclohexylmethyl]-4-(2-methoxycarbonylethyl)-1-propyl-4,5-dihydro-1H-imidazole-4-carboxylic acid methyl ester] | 78 |
| COC(=O)C1(CC(C)C)N=CN(CCc2ccccc2)C1C1CCC(C(c2cccc(F)c2)N(C)C)CC1 (stereo not shown) [Example 37, 5-{4-[dimethylamino-(3-fluorophenyl)-methyl]-cyclohexyl}-4-isobutyl-1-phenethyl-4,5-dihydro-1H-imidazole-4-carboxylic acid methyl ester] | 93 |
| CCCN1C=NC(CSC)(C(=O)OC)C1C1CCC(C(c2cccc(F)c2)N(C)C)CC1 (stereo not shown) [Example 57, 5-{4-[dimethylamino-(3-fluorophenyl)-methyl]-cyclohexyl}-4-methylsulfanylmethyl-1-propyl-4,5-dihydro-1H-imidazole-4-carboxylic acid methyl ester] | 86 |
| COC(=O)C1(CCSC)N=CN(Cc2ccccc2)C1CC1CCC(C(c2ccc(F)cc2)N(C)C)CC1 (stereo not shown) [Example 142, 1-benzyl-5-{4-[dimethylamino-(4-fluorophenyl)-methyl]-cyclohexylmethyl}-4-(2-methylsulfanyl-ethyl)-4,5-dihydro-1H-imidazole-4-carboxylic acid methyl ester] | 97 |
| COC(=O)CCC1(C(=O)OC)N=CN(Cc2ccccc2)C1CC1CCC(C(c2ccc(Cl)cc2)N(C)C)CC1 (stereo not shown) [Example 99, 1-benzyl-5-{4-[(4-chlorophenyl)-dimethylaminomethyl]-cyclohexylmethyl}-4-(2-methoxycarbonylethyl)-4,5-dihydro-1H-imidazole-4-carboxylic acid methyl ester] | 100 |
| CCCC1(C(=O)OC)N=CN(Cc2ccccc2)C1CC1CCC(C(CCc2ccccc2)N(C)C)CC1 (stereo not shown) [Example 144, 1-benzyl-5-[4-(1-dimethylamino-3-phenylpropyl)-cyclohexylmethyl]-4-propyl-4,5-dihydro-1H-imidazole-4-carboxylic acid methyl ester] | 90 |
| COC(=O)C1(CSC)N=CN(C2CCCCC2)C1CC1CCC(C(c2cccc(F)c2)N(C)C)CC1 (stereo not shown) [Example 149, 1-cyclohexyl-5-{4-[dimethylamino-(3-fluorophenyl)-methyl]-cyclohexylmethyl}-4-methylsulfanylmethyl-4,5-dihydro-1H-imidazole-4-carboxylic acid methyl ester] | 99 |
| COC(=O)C1(CC(C)C)N=CN(C2CCCCC2)C1C1CCC(C(c2cccc(F)c2)N(C)C)CC1 (stereo not shown) [Example 11, 1-cyclohexyl-5-{4-[dimethylamino-(3-fluorophenyl)-methyl]-cyclohexyl}-4-isobutyl-4,5-dihydro-1H-imidazole-4-carboxylic acid methyl ester] | 84 |
